Each structure is given as a SMILES string.

For test [1], the target named is GPR109A receptor (Homo sapiens, UniProt Q8TDS4). The conditions noted are these: cited from earlier work.
In test [2] the test system is serum phosphate. In words: Phase II dose finding study (DONATO), patients on hemodialysis: serum phosphate. The conditions noted are these: for a 0.22603 mmol/l phosphate level reduction against compare group; dose response of modified release capsules, 4 weeks. In kind it is in vivo, human. From the text:
Secondary outcome criteria included a comparison of the two different […] of nicotinamide by means of several measures of safety and efficacy.

For test [3] the following is noted: given in combination with the phosphate binder sevelamer; cited from earlier work.
Test [4] concerns S-phosphate, fractional phosphate elimination, FGF23. In words: DBA/2 mice: S-phosphate, fractional phosphate elimination, FGF23. It is filed as in vivo, mouse. The following applies: for FGF23 / fractional phosphate elimination: DBA/2 mice.
From the text: For this purpose, 5/6 nephrectomized DBA/2 mice were used as model for vascular calcification.

Chain of GPR109A receptor (Q8TDS4 whole entry): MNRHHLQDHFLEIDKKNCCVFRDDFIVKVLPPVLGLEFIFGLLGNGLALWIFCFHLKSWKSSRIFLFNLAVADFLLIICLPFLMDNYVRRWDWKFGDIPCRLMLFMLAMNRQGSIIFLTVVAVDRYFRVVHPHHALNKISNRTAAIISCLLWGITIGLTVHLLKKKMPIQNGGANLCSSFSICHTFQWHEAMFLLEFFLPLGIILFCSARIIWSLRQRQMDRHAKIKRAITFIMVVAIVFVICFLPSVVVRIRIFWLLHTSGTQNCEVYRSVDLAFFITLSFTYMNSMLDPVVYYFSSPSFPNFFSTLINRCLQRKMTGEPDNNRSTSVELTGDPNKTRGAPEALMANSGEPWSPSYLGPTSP

On to `NC(=O)c1cccnc1` [nicotinamide], for which, in test [1], the “binding to or effect on the GPR109A receptor” value is recorded as “does not bind or otherwise affect”. The compound further showed a minimum effective dose in test [2] of 450 mg. Also, in test [3], the treatment of hyperphosphatemia result is reported as “ineffective”. Also, in test [4], the FGF23 result is “reduction” and the fractional phosphate elimination entry is “reduction”. Besides, the S-phosphate result in test [4] (only in healthy DBA/2 mice with high phosphate diet, NA in the drinking water) is on record as “decrease”.

`O=C([O-])[O-].[Mg+2]` [magnesium carbonate]: in test [4], the FGF23 result is “reduction” and the fractional phosphate elimination entry is on record as “reduction”.

The record behind these values is US20180318280A1 (Salmon Pharma GmbH, priority 2017, published 2018).
